Legend:
[1] = system: anti-VP4 antibodies in plasmas or serums; assay: ELISA of plasmas/serums on wells coated with VP4 protein or VP4 peptides; format: binding, human; settings: diluted 1/50, antigen coated at 5 μg/ml, 490 nm
Description: 40 plasmas from non diabetic patients and 40 plasmas or serums from diabetic patients were assayed.
The VP4 protein or the 5 VP4 peptides, diluted at 5 μg/ml in PBS buffer pH=7.4, are coated in the wells of a microplate of 96 wells (FluoroMunc, MaxiSorp surface, NUNC, Danemark) at the rate of 100 μl/well. The plates are incubated for 1 hour at 37° C. under humid atmosphere, then left for 24 h at room temperature. After 3 washings with PBS buffer, the wells are saturated with 300 μl of saturation buffer for 1 hour at 37° C. under humid atmosphere, before washing 3 times with the washing buffer. Then 250 μl of post-coating buffer are added to each well and the plates are incubated for 24 h at room temperature, then stored at 4° C. until use.
The wells coated with the VP4 protein or the different peptides VP4 are washed 3 times with washing buffer in order to remove the post-coating solution. Then 100 μl of the plasmas or serums diluted to 1/50th in dilution buffer are added to different wells and the plates are incubated for 1 hour at 37° C. under humid atmosphere. Simultaneously, a negative control well containing 100 μl of dilution buffer is carried out. Then the wells are washed 3 times with the washing solution and 100 μl of secondary antibody solution are added to each well. After incubation for 1 h at 37° C. under humid atmosphere, the wells are washed 5 times with the washing solution and 100 μl of substrate solution are added to each well. The plates are incubated for 30 minutes at room temperature and in the dark. The coloured reaction is stopped by addition of 25 μl of H2SO4 2M (1M) per well and the plates are read in a plate reader at a wavelength of 490 nm.
ODs obtained for each serum with the VP4 protein and the different peptides VP4 were divided by the OD obtained with the negative control. The following Tables show the mean +/− standard deviation of the rates of OD obtained with the two series of assayed serums (Patient=diabetic patients, Control=not diabetic). (see FIGS. 8 à 10)

[2] = system: CVB3/plasma induced IFNα production by PBMCs; assay: CVB3/plasma induced IFNα production by PBMCs (DELFIA); format: cell-based, human; settings: CVB3 infection of PBMCs; healthy donor plasma preincubated 1 h with the VP4 protein before CVB3; 48 h; positive control 323 IU/ml
Description: VP4, H antigen or mock proteins were preincubated for 1 h at 37° C. at different concentrations with plasma from 5 healthy subjects diluted at optimal dilution (1/10 or 1/100 ). CVB3 or CVB4 were then added for 1 hour before incubating with PBMCs. […] On the contrary, the mock proteins isolated from non-infected Hep-2 cells have non effect on the IFNα production.
PBMCs separated from whole heparinated blood are distributed into microwells (plate of 96 wells), at the rate of 5 to 8.10^5 cell in 100 μl of supplemented RPMI medium by well. The infection of PBMC is made with a final volume of 100 μl of preparation in each well. […]
(§1) The concentration of the produced IFNα is determined with a sensitive and specific technique, the DELFIA method (Dissociation Enhanced Lanthanide FluoroImmmoAssay) (Rönnblom and al 1997).
The dosage of IFNα is performed following the DELFIA principle (Dissociation Enhanced Lanthanide FluoroImmunoAssay), based on a immunofluorescence in retarded phase method using antibodies binding IFNα of which one is labelled with europium. The use of an activation solution will release the europium conjugated with antibodies and emit a fluorescence proportional to the amount of produced IFNα and measured with a fluorometer (fluorometer LKB Wallac 1230 ARCOSO®, Turku, Finlande). […]

IFNα production by PBMCs = IFNα production by PBMCs with VP4 protein alone (control wells); format: cell-based, human; settings: no virus, no plasma
Description: PBMCs separated from whole heparinated blood are distributed into microwells (plate of 96 wells), at the rate of 5 to 8.10^5 cell in 100 μl of supplemented RPMI medium by well. The infection of PBMC is made with a final volume of 100 μl of preparation in each well. After incubation for 48 h at 37° C. under a 5% CO2 atmosphere and 90% humidity, the supernatant is harvested and used immediately for IFNα dosage, or clarified by centrifugation for 10 minutes at 180×g and stored at −80° C. until dosage of the produced IFNα.
as §1
The dosage of IFNα is performed following the DELFIA principle (Dissociation Enhanced Lanthanide FluoroImmunoAssay), based on a immunofluorescence in retarded phase method using antibodies binding IFNα of which one is labelled with europium. The use of an activation solution will release the europium conjugated with antibodies and emit a fluorescence proportional to the amount of produced IFNα and measured with a fluorometer (fluorometer LKB Wallac 1230 ARCOSO®, Turku, Finlande).
Monoclonal anti-IFNα antibodies LT 273 (5.4 mg/ml) and LT 293 (4.8 mg/ml) supplied by Dr Gunar Alm (Uppsala, Sweden) are coated to the bottom of the wells after an incubation for 12 hours at room temperature. […]

## recombinant VP4 protein: recombinant VP4 protein of CVB4E2, made in E. coli as MBP-VP4 fusion and cleaved by Factor Xa
[1]; Control = 40 serums of non diabetic patients
  Mean value of OD ratio (OD / OD of negative control), ELISA: 0.695
[1]; Patient = 40 serums of diabetic patients
  Mean value of OD ratio (OD / OD of negative control), ELISA: 2.119
[2]
  IFNα production: 308 IU/ml
IFNα production by PBMCs
  IFNα production by PBMCs, protein alone: do not lead to the IFNα production
